Values quoted from earlier work, collected in patent US9580717B2, “Heterologous hosts” (priority 2009, dated 2017).

Experiments:
[1] = tested on: tumour cell lines
[2] = tested on: P388 leukaemia cells; details: mouse, in vivo
[3] = tested on: malignant mammalian cells

CCCCCCC/C=C/C=C/C(=O)N[C@H](C(=O)N[C@H]1C[C@@H](O)CCNC(=O)/C=C/[C@H](C)NC1=O)[C@@H](C)O [Glidobactin A]
cytotoxicity to tumour cell lines [1]: cytotoxic to tumour cell lines
lifespan of mice inoculated with P388 leukaemia cells [2]: can prolong the lifespan

C[C@H]1CCC(C2=C(CC(=O)NCC(=O)c3csc(C(=O)C(=O)c4csc(CNC(=O)CC5=C(C6=N[C@@H](C)CC6)C(=O)NC56CC6)n4)n3)C3(CC3)NC2=O)=N1 [Colibactin]
cytopathic activity against malignant mammalian cells [3]: cytopathic activity
